Legend:
mice [1] = test: Hole board test in mice; assay type: in vivo; conditions: long-term (23 days); for Number of Head dips / Time of head dipping: 5 min
Procedure: Hole board test, an animal model of anxiety established by Boissie, et al (1962), was performed in mice.
1) Experimental device: a transparent Perspex box (40×40×27 cm) which had four holes (3 cm in diameter, 1.8 cm in depth) in the floor. The distance of each hole center to its closest wall is 10 cm.
2) Experimental method: Male Kunming mice weighing 20-25 g. The mice were intragastrically administered with YL-0911 or vehicle (distilled water). After 23 days, the mice were placed at center of the hole board with their backs facing to the observer. A head dip was scored if the animal's head dipped into the hole at least up to eye level The latency to the first head-dip, the number of head-dips and the time spent in head-dipping were recorded for 5 min.

[2] = molecular target: T1, 5-HT transport protein (SERT) (Rattus norvegicus, UniProt P31652); test: Screening: competitive binding test to SERT using [3H]-citalopram; conditions: [3H]-citalopram 1 nM, read-out: Inhibition percent (I %), competitive binding to 5-HT transport protein (SERT)
T1 construct: Preparation of Membrane Proteins in Rat Hippocampi; from tissue; host or cells: Wistar rat hippocampus
T1 sequence (P31652 whole entry): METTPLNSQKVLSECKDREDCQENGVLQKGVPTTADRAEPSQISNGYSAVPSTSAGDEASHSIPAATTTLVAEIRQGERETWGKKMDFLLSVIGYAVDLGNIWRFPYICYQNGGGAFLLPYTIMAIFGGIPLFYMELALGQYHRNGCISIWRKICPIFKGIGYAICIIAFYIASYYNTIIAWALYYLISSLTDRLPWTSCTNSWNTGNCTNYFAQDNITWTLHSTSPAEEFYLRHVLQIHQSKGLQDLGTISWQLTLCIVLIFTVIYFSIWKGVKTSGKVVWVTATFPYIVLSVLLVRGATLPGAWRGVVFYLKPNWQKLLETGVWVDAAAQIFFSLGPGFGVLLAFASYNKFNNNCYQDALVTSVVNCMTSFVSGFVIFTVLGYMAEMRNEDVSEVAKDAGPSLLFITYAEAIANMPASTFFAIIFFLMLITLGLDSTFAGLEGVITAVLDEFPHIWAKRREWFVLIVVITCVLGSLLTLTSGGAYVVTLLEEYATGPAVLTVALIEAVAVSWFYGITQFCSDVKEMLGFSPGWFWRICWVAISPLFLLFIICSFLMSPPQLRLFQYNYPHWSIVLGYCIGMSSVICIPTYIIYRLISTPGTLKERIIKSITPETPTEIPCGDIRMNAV
Procedure: The homogenate was centrifuged under 1000×g for 10 minutes and the supernatant was then centrifuged under 39000×g for 10 minutes. The precipitate was collected, and resuspended with 10 times volume of Tris-HCl buffer solution (pH 7.4) relative to the original weight, then centrifuged under 39000×g for 10 minutes. The precipitate was washed with the same buffer solution, centrifuged under 39000×g for 10 minutes and the precipitate was suspended with the above buffer solution. After sub-packaged (the whole operation procedures were performed under ice bath), the product was stored at −80° C. The protein concentration was measured by Lowrry method.

mice [3] = test: Novel object recognition test in mice; assay type: in vivo; conditions: repeated daily, tested day 8, mice
Procedure: Novel object recognition test is a cognitive behavior model established by Lima, et al.
1) Experimental device: a white Perspex box (60×60×16 cm), two completely identical objects, and one completely different object.
2) Experimental method: Male Kunming mice weighing 20-25 g. The mice were intragastrically administered with YL-0911 or vehicle (distilled water) for 5 days. On day 6, after treatment with YL-0911 or vehicle, each mouse was placed into the Perspex box at the same place for 5 min as habituation. On day 7, the mice were administered YL-0911 or vehicle and then individually placed in the Perspex box at the same place containing two identical objects located in the two diagonal corners for 5 minutes. On day 8, mice were tested for memory using the same procedure as day 7 except that one of the familiar objects was replaced with a novel object.

5-HT reuptake = molecular target: T2, 5-HT reuptake (Rattus norvegicus, UniProt P31652); test: 5-HT reuptake inhibition in crudely produced rat synaptosomes ([3H]-5-HT); assay type: biochemical; conditions: [3H]-5-HT 20.3 nM, read-out: IC50 of 5-HT reuptake inhibition in rat brain
T2 construct: from tissue; host or cells: rat brain (hippocampi and cortex separated; results from cortex), crude synaptosomes
T2 sequence (P31652 whole entry): as above
Procedure: (1) Preparation of Synaptosome Protein.
1) Rats were rapidly decapitated and the brains were removed, and hippocampi and cortex were separated on ice.
2) Same brain tissues of 3 rats were combined, to which 10 times volume of ice-bath homogenate was added, and homogenized.
3) The homogenate was centrifuged at 4° C. under 1500 g for 10 minutes and the precipitate was decanted.
4) The supernatant was centrifuged at 4° C. under 12000 g for 15 minutes and the supernatant was decanted, and the precipitate portion was a crudely produced synaptosome.
5) Washed with resuspension buffer twice and centrifuged at 4° C. under 13000 g for 10 minutes and resuspended again.
6) Protein concentration was measured by Lowrry method.
7) The synaptosome was preserved on ice, and the test was completed within 4-6 h.
1) To all tubes, the crudely produced synaptosome protein was added in an amount of 50 μg in sequence.
3) To the test tubes, the drug to be tested in various concentrations in range of 10^−3-10^−10M was added in sequence and reacted for 15 minutes. […]
7) The samples were then applied to 49-type glass fibre filters, vacuum suction filtered, washed 5 times with 10 ml ice-cooled Tris-HCl buffer. […] The radioactive intensity was measured by using LS6500 type liquid scintillation counter.
The calculated inhibition percents were used to calculate IC50 value by using Orgin7.0/GraphPad Prism 4.0 software.

inhibition at 10 µM ([2]; compound 10^-5 mol/L): 100%
inhibition at 0.1 µM ([2]; compound 10^-7 mol/L): 84%
IC50 (5-HT reuptake): 8.51 ± 0.23 nM
SMILES: O=c1ccccn1CC1(O)CCN(Cc2ccccc2)CC1 [Compound 1, 1-[(1-benzyl-4-hydroxypiperidin-4-yl)-methyl]-pyridin-2(1H)-one]
the latency to the first head-dip (mice [1]; 0.625 mg/kg p.o.): 62.60 ± 16.75 s
Number of Head dips (mice [1]; 0.625 mg/kg p.o.): 6.40 ± 0.97
Time of head dipping (mice [1]; 0.625 mg/kg p.o.): 3.75 ± 0.91 s
the latency to the first head-dip (mice [1]; 1.25 mg/kg p.o.): 33.00 ± 6.34 s
Number of Head dips (mice [1]; 1.25 mg/kg p.o.): 10.60 ± 1.17
Time of head dipping (mice [1]; 1.25 mg/kg p.o.): 6.86 ± 0.55 s
the latency to the first head-dip (mice [1]; 5 mg/kg p.o.): 31.60 ± 6.88 s
Number of Head dips (mice [1]; 5 mg/kg p.o.): 7.40 ± 1.00
Time of head dipping (mice [1]; 5 mg/kg p.o.): 5.95 ± 0.93 s
Recognition index (mice [3]; 0.625 mg/kg p.o.): 59.95 ± 2.74
Recognition index (mice [3]; 1.25 mg/kg p.o.): 64.76 ± 5.02
